Assay results published in patent publication US20030044797A1, “Detection of CYP2D6 polymorphisms” (priority 2000, published 2003).

Tested on: CYP2D6 enzyme
Test: debrisoquine metabolic ratio (MR) phenotyping of study participants, correlated with CYP2D6 5′ flanking region haplotypes
Format: in vivo, human
Protocol: The study was performed in accordance with the principles stated in the Declaration of Helsinki as reviewed in Tokyo 1975 and Venice 1983, Hong Kong 1989 and Somerset West 1996. Subjects were preferably not related to each other. Based on questioning, individuals having one of the following were excluded: a medical condition judged to influence liver function or requiring pharmacological treatment; any on-going disease; intake of any drug, except oral contraceptives, during one week prior to the study; breast-feeding or pregnancy. No physical examination was performed. For these experiments, a single oral dose of 10 mg debrisoquine (Declinax, Hoffman-LaRoche) was taken in the evening before bed-time. The bladder was emptied before drug intake. All urine was then collected overnight (about 8 hours) A single blood sample was collected 3 hours after drug intake.
White blood cells isolated from a blood sample drawn from the brachial vein serve as the source of the genomic DNA for the analyses. The DNA was extracted by guanidine thiocyanate method or QlAamp Blood Kit (QIAGEN, Venlo, The Netherlands). The genes included in the study were amplified by PCR and the DNA sequences were determined by the technology most suitable for the specific fragment. […] Case Report Forms were designed and used for clinical and genetic data collection. Data was entered and stored in a relational database at Gemini Genomics AB, Uppsala. To secure consistency between the Case Report Forms and the database, data was checked either by double data entry or proofreading. After a Clean File was declared the database was protected against changes. By using the program Stat/Transfer™ the database was transferred to SAS data sets. The SAS™ system was used for tabulations and statistical evaluations. Genotypes and haplotypes were correlated against the metabolic ratio.
This analysis was performed using software based on maximum likelihood methodology and using the EM algorithm of Excoffier et al. (1995), Mol Biol Evol. 12:921-927. […] From the haplotype information two different kinds of variables were created: one variable was formed as a haplotype combination variable (HTYPE). This variable has the value H1/H2 when the subject has haplotypes 1 and 2, etc. Variables H1, H2, H3 and H4 are haplotype annotations that denote the number of copies of that particular haplotype for the subject, e.g., for a subject with haplotype H1/H2 the variables H1, H2, H3 and H4 will be 1, 1, 0 and 0, respectively. Each of these variables can thus take on the values 0, 1 or 2. Only the four most frequent haplotypes were considered when those variables were formed.

Question: What does the source list for `N=C(N)N1CCc2ccccc2C1` [debrisoquine]?
Answer: MR-range (min-max) (HTYPE H1/H1): 0.03-110; MR (Debr), predicted metabolic ratio (HTYPE H1/H1, 89% (49/55) in MR-range): <0.8; MR-range (min-max) (HTYPE H1/H2): 0.06-1.04; MR (Debr), predicted metabolic ratio (HTYPE H1/H2, 81% (52/64) in MR-range): <0.4; MR-range (min-max) (HTYPE H1/H3): 0.08-2.40; MR (Debr), predicted metabolic ratio (HTYPE H1/H3, 74% (14/19) in MR-range): 0.4-2.0; MR-range (min-max) (HTYPE H1/H4): 0.18-143; MR (Debr), predicted metabolic ratio (HTYPE H1/H4, 74% (20/27) in MR-range): 0.4-7.0; MR-range (min-max) (HTYPE H2/H2): 0.13-1.44; MR (Debr), predicted metabolic ratio (HTYPE H2/H2, 89% (17/19) in MR-range): <0.8; MR-range (min-max) (HTYPE H2/H3): 0.13-2.29; MR (Debr), predicted metabolic ratio (HTYPE H2/H3, 86% (6/7) in MR-range): 0.2-7.0; MR-range (min-max) (HTYPE H2/H4): 0.33-3.70; MR (Debr), predicted metabolic ratio (HTYPE H2/H4, 82% (14/17) in MR-range): 0.4-2.0; MR-range (min-max) (HTYPE H3/H3): 0.85-5.17; MR (Debr), predicted metabolic ratio (HTYPE H3/H3, 100% (3/3) in MR-range): 0.8-7.0; MR-range (min-max) (HTYPE H3/H4): 1.46-6.54; MR (Debr), predicted metabolic ratio (HTYPE H3/H4, 100% (5/5) in MR-range): 0.8-7.0; MR-range (min-max) (HTYPE H4/H4): 26.3-236; MR (Debr), predicted metabolic ratio (HTYPE H4/H4, 100% (16/16) in MR-range): >12.6; mr50 (metabolic ratio of the 50th percentile) (haplotype H1/H1, n = 53, single oral dose 10 mg debrisoquine): mr50 = 0.22; mr50 (metabolic ratio of the 50th percentile) (haplotype H1/—, n = 108): mr50 = 0.375; mr50 (metabolic ratio of the 50th percentile) (haplotype H2/H2, n = 19): mr50 = 0.3; mr50 (metabolic ratio of the 50th percentile) (haplotype H2/—, n = 88): mr50 = 0.335; mr50 (metabolic ratio of the 50th percentile) (haplotype H3/H3, n = 3): mr50 = 2.08; mr50 (metabolic ratio of the 50th percentile) (haplotype H3/—, n = 31): mr50 = 0.64; mr50 (metabolic ratio of the 50th percentile) (haplotype H4/H4, n = 16): mr50 = 88; mr50 (metabolic ratio of the 50th percentile) (haplotype H4/—, n = 49): mr50 = 0.86; mr50 (metabolic ratio of the 50th percentile) (no H1 copy (—/—), n = 71): mr50 = 0.87; mr50 (metabolic ratio of the 50th percentile) (no H2 copy (—/—), n = 125): mr50 = 0.56; mr50 (metabolic ratio of the 50th percentile) (no H3 copy (—/—), n = 198): mr50 = 0.34; mr50 (metabolic ratio of the 50th percentile) (no H4 copy (—/—), n = 167): mr50 = 0.27
